From US4062964A, “Antifertility-combinations” (Ciba-Geigy Corporation, priority 1976, dated 1977)
Where two headings read alike, the source gives them in different places.

How the values were obtained:
pregnant rats [1] = experiment: Resorption of embryos by s.c. prostaglandins in pregnant rats; assay type: in vivo, rat; conditions: for Fetuses / Resorptions / Total Implants: days 4-7
Procedure: (§1) The efficacy of the compositions according to the invention is demonstrable in animal tests, using advantageously mammals, such as rats, hamsters or baboons, as test objects. Thus, for example, adult female rats weighing 190-250 grams are housed in a "reverse room" as described in Contraception 3, 347 (1971), with the exception that the animals have 14 hours of light between 5 P.M. and 7 A.M., and 10 hours of darkness from 7 A.M. to 5 P.M. They are placed with adult male rats from 10 A.M. to 2 P.M. (i.e. "their midnight" ± 2 hours) following which vaginal smears are obtained.
(§2) Said antifertility compounds may be administered orally, e.g. in suspension with the excipient compraising 3% (by weight) of carboxymethylcellulose, 1.05% methylcellulose, 0.8% sodium chloride, 0.1% polysorbate 80 and 0.002% thimerosal in water, as a single dose on day 5 of pregnancy (i.e. the day after implantation unless otherwise specified). Prostaglandins may be injected subcutaneously twice (9 A.M. and 3 P.M.) on days 4-7 in a conventional 0.1M phosphate buffer at pH = 7.45. Aminoglutethimide phosphate can also be administered in aqueous solution orally, subcutaneously, intraperitoneally or intravenously. The rats are sacrificed on day 10 or 11 of pregnancy and the uterus is examined for living and dead fetuses and implantation sites. The terms "abortion" and "resorption" are used interchangeably because by day 10 or 11 the uterine scars resulting from either event are indistinguishable by gross inspection.
However, when the compounds were injected twice daily (9 a.m. and 3 p.m.) in adequate doses on days 4-7 of gestation, implantation occured at the normal time but this was then followed by resorption of the embryos. […]

pregnant rats [2] = experiment: Combined treatment AGP and PGF2α, resorption of fetuses in pregnant rats; assay type: in vivo, rat
Procedure: as §1, §2

pregnant rats [3] = experiment: Abortifacient activity of AGP in pregnant rats (3 doses on day 9; large single or daily oral doses); assay type: in vivo, rat
Procedure: as §1, §2

progesterone levels = experiment: Progesterone levels in rats after aminoglutethimide phosphate; assay type: in vivo, rat; conditions: large single or daily oral doses
pregnant hamsters = experiment: Antifertility ED50 in pregnant hamsters; assay type: in vivo, hamster; conditions: for ED50: Mesocricetus auratus
Procedure: (§3) Said compositions are administered to pregnant Lakeview hamsters arriving at day 1 postcoitus, which are maintained in a day-night reversed room (11 A.M. to 11 P.M.). Food and water is given ad libitum. Six hamsters per group are used (3 per cage) and each test is carried out with a control group receiving said excipients only. The orally administered AGT is given for 3 consecutive days starting on day 3 postcoitus, at a rate of 5 ml/kg body weight, and these animals are sacrificed on day 10 to 12 postcoitus. The subcutaneously administered TPF is given once on day 5 postcoitus only, at a volume of 0.2 ml per animal, and these animals are sacrificed on day 8 postcoitus. The uterus of each animal is inspected and implantation sites are counted and recorded according to viable or resorbed fetuses. Percent inhibition is determined by comparison of treated groups over the control group.

[4] = tested on: pregnant Lakeview hamsters; experiment: Antifertility effect (percent of litter living) in pregnant hamsters, AGT p.o. and TPF s.c.; assay type: in vivo, hamster
Procedure: Said active ingredients are administered in admixture with the following excipients:
AGT + 3% corn starch + 5% polyethylene glycol 400 + 1 drop of polysorbate 80 per 10 ml of distilled water.
TPF 10 mg per 0.1 ml of ethanol, which solution is diluted with the buffer prepared from 19 ml of 0.2M aqueous monosodium phosphate and 81 ml of 0.2M aqueous disodium phosphate, corrected with the latter to the pH = 7.4.
as §3

rats = experiment: Activity of TPF in rats; conditions: rat, in vivo
rabbits = experiment: Activity of TPF in rabbits; conditions: rabbit, in vivo
[5] = tested on: conversion of cholesterol to pregnenolone; conditions: background; cited from earlier work
progesterone secretion = conditions: pregnant and non-pregnant animals and human beings, background; cited from earlier work
[6] = 100 mg/kg × 3 on day 9, i.p., 10 rats
[7] = 100 mg/kg × 3 on day 9, i.v., 3 rats
[8] = 100 mg/kg × 3 on day 9, p.o., 5 rats
[9] = sc, pregnant hamsters, approximative, read-out: ED50 s.c. for antifertility effects

CCCCC[C@H](O)/C=C/[C@H]1[C@H](O)CC(=O)[C@@H]1CCCCCCC(=O)O [PGE1]
Fetuses (pregnant rats [1]; 200 μg/rat s.c. × 2 daily): 10.8 ± 2.7 | Resorptions (pregnant rats [1]; 200 μg/rat s.c. × 2 daily): 0 | Total Implants (pregnant rats [1]; 200 μg/rat s.c. × 2 daily): 10.8 ± 2.7 | Fetuses (pregnant rats [1]; 400 μg/rat s.c. × 2 daily): 10.6 ± 2.7 | Resorptions (pregnant rats [1]; 400 μg/rat s.c. × 2 daily): 0 | Total Implants (pregnant rats [1]; 400 μg/rat s.c. × 2 daily): 10.6 ± 2.7 | Fetuses (pregnant rats [1]; 800 μg/rat s.c. × 2 daily): 0 | Resorptions (pregnant rats [1]; 800 μg/rat s.c. × 2 daily): 7.0 ± 1.9 | Total Implants (pregnant rats [1]; 800 μg/rat s.c. × 2 daily): 7.0 ± 1.9

CCC1(c2ccc(N)cc2)CCC(=O)NC1=O (stereo not shown) [AGP, aminoglutethimide phosphate]
resorption of fetuses in rats (pregnant rats [2]; AGP 30 mg/kg s.c. days 3-5 of pregnancy): did not induce resorption of fetuses | Fetuses (pregnant rats [2]; AGP 30 mg/kg s.c., days 3-5): 12.2 ± 1.8 | Resorptions (pregnant rats [2]; AGP 30 mg/kg s.c., days 3-5): 1.6 ± 1.1 | Total Implants (pregnant rats [2]; AGP 30 mg/kg s.c., days 3-5): 13.8 ± 1.0 | Fetuses (pregnant rats [3]; [6]): 4.4 ± 2.2 | Resorptions (pregnant rats [3]; [6]): 8.9 ± 2.0 | Total Implants (pregnant rats [3]; [6]): 13.3 ± 0.6 | Fetuses (pregnant rats [3]; [7]): 4.3 ± 4.3 | Resorptions (pregnant rats [3]; [7]): 10.3 ± 4.7 | Total Implants (pregnant rats [3]; [7]): 14.7 ± 0.7 | Fetuses (pregnant rats [3]; [8]): 13.8 ± 0.9 | Resorptions (pregnant rats [3]; [8]): 0.4 ± 0.4 | Total Implants (pregnant rats [3]; [8]): 14.2 ± 0.7 | abortifacient on day 9 (pregnant rats [3]; given every 8 hours, i.v. versus p.o., rats): abortifacient on day 9 when given every 8 hours i.v., but not p.o. | abortifacient activity (pregnant rats [3]; large single or daily oral doses, rats): very resistant to the abortifacient activity | decrease of progesterone levels (progesterone levels): more than 70%

CCCCC[C@H](O)/C=C/[C@@H]1[C@@H](C/C=C\CCCC(=O)O)[C@@H](O)C[C@H]1O [PGF2α, prostaglandin F2α]
resorption of fetuses in rats (pregnant rats [2]; PGF2α 1 mg/kg s.c. on day 5 of pregnancy): did not induce resorption of fetuses | Fetuses (pregnant rats [2]; PGF2α 1 mg/kg s.c., day 5): 15.4 ± 0.6 | Resorptions (pregnant rats [2]; PGF2α 1 mg/kg s.c., day 5): 0 | Total Implants (pregnant rats [2]; PGF2α 1 mg/kg s.c., day 5): 15.4 ± 0.6 | Fetuses (pregnant rats [1]; 100 μg/rat s.c. × 2 daily): 14.2 ± 0.7 | Resorptions (pregnant rats [1]; 100 μg/rat s.c. × 2 daily): 0 | Total Implants (pregnant rats [1]; 100 μg/rat s.c. × 2 daily): 14.2 ± 0.7 | Fetuses (pregnant rats [1]; 200 μg/rat s.c. × 2 daily): 14.4 ± 0.2 | Resorptions (pregnant rats [1]; 200 μg/rat s.c. × 2 daily): 0.2 ± 0.2 | Total Implants (pregnant rats [1]; 200 μg/rat s.c. × 2 daily): 14.6 ± 0.2 | Fetuses (pregnant rats [1]; 400 μg/rat s.c. × 2 daily): 0 | Resorptions (pregnant rats [1]; 400 μg/rat s.c. × 2 daily): 9.6 ± 2.6 | Total Implants (pregnant rats [1]; 400 μg/rat s.c. × 2 daily): 9.6 ± 2.6 | relative activity versus PGE1 and PGE2 (pregnant rats [1]; s.c. twice daily, days 4-7, rats): about twice as active as PGE1 and PGE2 | ED50 (pregnant hamsters; [9]): 0.1 mg/kg | ED50 (pregnant hamsters; oral, pregnant hamsters, approximative, read-out: ED50 oral for antifertility effects): 7.5 mg/kg

CCCCC[C@H](O)/C=C/[C@H]1[C@H](O)CC(=O)[C@@H]1C/C=C\CCCC(=O)O [PGE2]
Fetuses (pregnant rats [1]; 200 μg/rat s.c. × 2 daily): 10.6 ± 2.8 | Resorptions (pregnant rats [1]; 200 μg/rat s.c. × 2 daily): 0 | Total Implants (pregnant rats [1]; 200 μg/rat s.c. × 2 daily): 10.6 ± 2.8 | Fetuses (pregnant rats [1]; 400 μg/rat s.c. × 2 daily): 6.6 ± 2.8 | Resorptions (pregnant rats [1]; 400 μg/rat s.c. × 2 daily): 0 | Total Implants (pregnant rats [1]; 400 μg/rat s.c. × 2 daily): 6.6 ± 2.8 | Fetuses (pregnant rats [1]; 800 μg/rat s.c. × 2 daily): 0 | Resorptions (pregnant rats [1]; 800 μg/rat s.c. × 2 daily): 5.6 ± 2.6 | Total Implants (pregnant rats [1]; 800 μg/rat s.c. × 2 daily): 5.6 ± 2.6 | ED50 (pregnant hamsters; [9]): 2 mg/kg

CC[C@]1(c2ccc(N)cc2)CCC(=O)NC1=O.CC[C@]1(c2ccc(N)cc2)CCC(=O)NC1=O.O.O=C(O)C(O)C(O)C(=O)O.O=C(O)C(O)C(O)C(=O)O [AGT, d-aminoglutethimide d-tartrate hemihydrate]
effective as antifertility agent ([4]; 500 mg/kg/p.o.): 100% | PERCENT OF LITTER LIVING ([4]; AGT 100 mg/kg p.o. day 3-5, TPF 0): 90% | PERCENT OF LITTER LIVING ([4]; AGT 250 mg/kg p.o. day 3-5, TPF 0): 68% | PERCENT OF LITTER LIVING ([4]; AGT 500 mg/kg p.o. day 3-5, TPF 0): 0%

O=C(O)CCCCCCC1OCC(O)C1/C=C/C(O)COc1cccc(C(F)(F)F)c1 (stereo not drawn) [TPF, 7-[3α-(3β-hydroxy-4-(m-trifluoromethylphenoxy)-1-trans-butenyl)-4β-hydroxy-tetrahydro-2β-furyl]-heptanoic acid]
activity in rats (rats): active in rats | effective as antifertility agent ([4]; 25 μg/animal/s.c.): 64% | PERCENT OF LITTER LIVING ([4]; TPF 5 μg s.c. day 5, AGT 0 mg): 98% | PERCENT OF LITTER LIVING ([4]; TPF 10 μg s.c. day 5, AGT 0 mg): 70% | PERCENT OF LITTER LIVING ([4]; TPF 25 μg s.c. day 5, AGT 0 mg): 36% | oral potency relative to PGF2α (pregnant hamsters; oral, more potent than PGF2α): 10-20 times | oral antifertility effectiveness (pregnant hamsters; oral, pregnant hamsters): orally effective | ED50 oral for antifertility effects (pregnant hamsters; oral, pregnant hamsters, approximative): 0.31 mg/kg | ED50 s.c. for antifertility effects (pregnant hamsters; s.c., pregnant hamsters, approximative): 0.1 mg/kg | activity in rabbits (rabbits): active in rats and rabbits

CCC1(c2ccc(N)cc2)CCC(=O)NC1=O (stereo not shown) [aminoglutethimide]
conversion of cholesterol to pregnenolone in the steroid pathway [5]: blocks the conversion of cholesterol to pregnenolone | progesterone secretion (progesterone secretion): inhibits progesterone secretion
